How the values were obtained:
[1] = tested on: Aβ42; assay: Method 1: Aβ42 sandwich ELISA in supernatant of SKNBE2 cells carrying APP 695-wild type (Tables 7a, 7b); assay type: cell-based
Experimental: (§1) Screening was carried out using SKNBE2 cells carrying the APP 695-wild type, grown in Dulbecco's Modified Eagle's Medium/Nutrient mixture F-12 (DMEM/NUT-mix F-12) (HAM) provided by Gibco (cat no. 31330-38) containing 5% Serum/Fe supplemented with 1% non-essential amino acids. Cells were grown to near confluency.
(§2) The screening was performed using the assay as described in Citron et al (1997) Nature Medicine 3: 67. Briefly, cells were plated in a 96-well plate at about 10^5 cells/ml one day prior to addition of compounds. Compounds were added to the cells in Ultraculture (Lonza, BE12-725F) supplemented with 1% glutamine (Invitrogen, 25030-024) for 18 Hours. The media were assayed by two sandwich ELISAs, for Aβ42 and Aβtotal. Toxicity of the compounds was assayed by WST-1 cell proliferation reagent (Roche, 1 644 807) according to the manufacturer's protocol.
To quantify the amount of Aβ42 in the cell supernatant, commercially available Enzyme-Linked-Immunosorbent-Assay (ELISA) kits were used (Innotest® β-Amyloid(1-42), Innogenetics N.V., Ghent, Belgium). The Aβ42 ELISA was performed essentially according to the manufacturer's protocol. Briefly, the standards (dilutions of synthetic Aβ1-42) were prepared in polypropylene Eppendorf with final concentrations of 8000 down to 3.9 pg/ml (½ dilution step). Samples, standards and blanks (100 μl) were added to the anti-Aβ42-coated plate supplied with the kit (the capture antibody selectively recognizes the C-terminal end of the antigen). The plate was allowed to incubate 3 H at 25° C. in order to allow formation of the antibody-amyloid complex. Following this incubation and subsequent wash steps a selective anti-Aβ-antibody conjugate (biotinylated 3D6) was added and incubated for a minimum of 1 Hour in order to allow formation of the antibody-Amyloid-antibody-complex. After incubation and appropriate wash steps, a Streptavidine-Peroxidase-Conjugate was added, followed 30 minutes later by an addition of 3,3′,5,5′-tetramethylbenzidine (TMB)/peroxide mixture, resulting in the conversion of the substrate into a coloured product. This reaction was stopped by the addition of sulfuric acid (0.9 N) and the colour intensity was measured by means of photometry with an ELISA-reader with a 450 nm filter.
(§3) To obtain the values reported in Table 7a, the sigmoidal dose response curves were analysed by computerised curve-fitting, with percent of inhibition plotted against compound concentration. A 4-parameter equation (model 205) in XLfit was used to determine the IC50. The top and the bottom of the curve were fixed to 100 and 0, respectively, and the hill slope was fixed to 1. The IC50 represents the concentration of a compound that is required for inhibiting a biological effect by 50% (Here, it is the concentration where Aβ peptide level is reduced by 50%).
(§4) To obtain the values reported in Table 7b, the data were calculated as percentage of the maximum amount of amyloid Beta 42 measured in the absence of the test compound. The sigmoidal dose response curves were analyzed using non-linear regression analysis with percentage of the control plotted against the log concentration of the compound. A 4-parameter equation was used to determine the IC50. The values reported in Table 7b are averaged IC50 values.

[2] = tested on: Aβtotal; assay: Method 1: Aβtotal sandwich ELISA in supernatant of SKNBE2 cells carrying APP 695-wild type (Tables 7a, 7b); assay type: cell-based
Experimental: as §1, §2
To quantify the amount of Aβtotal in the cell supernatant, samples and standards were added to a 6E10-coated plate. The plate was allowed to incubate overnight at 4° C. in order to allow formation of the antibody-amyloid complex. Following this incubation and subsequent wash steps a selective anti-Aβ-antibody conjugate (biotinylated 4G8) was added and incubated for a minimum of 1 Hour in order to allow formation of the antibody-Amyloid-antibody-complex. After incubation and appropriate wash steps, a Streptavidine-Peroxidase-Conjugate was added, followed 30 minutes later by an addition of Quanta Blu fluorogenic peroxidase substrate according to the manufacturer's instructions (Pierce Corp., Rockford, Ill.).
as §3, §4

[3] = Homo sapiens, SKNBE2, Table 7b, averaged IC50, non-linear regression of percentage of control vs log concentration, 4-parameter equation
[4] = Homo sapiens, Table 7a, SKNBE2 cells, compounds 18 h, XLfit 4-parameter fit of percent inhibition, top/bottom fixed to 100/0, hill slope 1
[5] = Table 7a, SKNBE2 cells, compounds 18 h, XLfit 4-parameter fit of percent inhibition, top/bottom fixed to 100/0, hill slope 1
[6] = Table 7b, averaged IC50, non-linear regression of percentage of control vs log concentration, 4-parameter equation

SMILES | IC50 [1, 3] [nM] | IC50 [1, 4] [nM] | IC50 [2, 3] [nM] | IC50 [2, 4] [nM] | IC50 [1, 5] [nM] | IC50 [1, 6] [nM] | IC50 [2, 5] [nM] | IC50 [2, 6] [nM]
COc1cccc(-c2nc3c(Nc4ccc(-c5cnc(C)s5)c(OC)c4)cccn3c2C)c1 [Compound 4] | 63 | 67 | > 3000 | > 3000 |  |  |  | 
COc1cccc(-c2nc3c(Nc4ccc(-c5sc(C)nc5C)c(OC)c4)cccn3c2C)c1 [Compound 5] | 78 | 63 | > 3000 | > 3000 |  |  |  | 
COc1cccc(-c2nc3c(Nc4ccc(-c5cn(C)nc5C)c(OC)c4)cccn3c2C)c1 [Compound 6] | 102 | 77 | > 3000 | > 3000 |  |  |  | 
COc1cc(Nc2cccn3cc(-c4ccc(F)cc4)nc23)ccc1-c1oc(C)nc1C [Compound 7] | 302 | 334 | > 10000 | > 10000 |  |  |  | 
COc1cc(Nc2cccn3c(C)c(-c4ccccc4)nc23)ccc1-c1oc(C)nc1C [Compound 8] | 282 | 275 | > 5000 | > 5000 |  |  |  | 
COc1cccc(-c2nc3c(Nc4ccc(-c5ocnc5C)c(OC)c4)cccc3n2C)c1 [Compound 20] |  |  |  |  | 13 | 17 | > 1000 | > 1000
COCCn1c(C)nc2c(Nc3ccc(-c4cnc(C)s4)c(OC)c3)cccc21 [Compound 37] |  |  |  |  |  | 380 |  | > 3000
Cc1ncc(-c2ccc(Nc3cccn4cc(-c5ccccc5C)nc34)cc2)o1 [Compound 39] |  |  |  |  | 53 | 51 | > 3000 | > 3000
Cc1cc(F)ccc1-c1cn2cccc(Nc3ccc(-c4ocnc4C)nc3)c2n1 [Compound 44] |  |  |  |  | 140 | 138 | > 10000 | > 10000
Cc1ccc(-c2cn3cccc(Nc4ccc(-c5ocnc5C)nc4)c3n2)c(F)c1 [Compound 45] |  |  |  |  | 848 | 813 | > 30000 | > 30000
COc1cc(Nc2cccn3cc(-c4cc(F)ccc4C)nc23)ccc1-c1cnc(C)o1 [Compound 48] |  |  |  |  |  | 132 |  | > 10000
Cc1ccc(C(F)(F)F)cc1-c1cn2cccc(Nc3ccc(-c4ocnc4C)nc3)c2n1 [Compound 51] |  |  |  |  |  | 72 |  | > 3000
COc1cc(Nc2cccn3cc(-c4ccccc4C)nc23)ccc1-c1cnc(C)s1 [Compound 52] |  |  |  |  |  | 166 |  | > 3000
Cc1ncc(-c2ccc(Nc3nccc4c3nc(-c3ccc(F)cc3F)n4C)cc2F)o1 [Compound 55] |  |  |  |  |  | 3020 |  | > 10000
Cc1ncc(-c2ccc(Nc3nc(Br)cn4cc(-c5ccc(F)cc5C)nc34)cc2)o1 [Compound 60] |  |  |  |  |  | 3020 |  | > 3000
Cc1ncoc1-c1ccc(Nc2cccc3c2nc(COc2ccccc2)n3C)cn1 [Compound 61] |  |  |  |  |  | 1070 |  | > 3000
COc1cc(-c2nc3c(Nc4ccc(-c5cnc(C)o5)c(OC)c4)cccc3n2C)ccc1Cl [Compound 62] |  |  |  |  |  | 9 |  | > 3000
CCn1c(CC2CC2)nc2c(Nc3ccc(-c4cnc(C)o4)c(OC)c3)cccc21 [Compound 64] |  |  |  |  |  | 68 |  | > 3000
COc1cc(Nc2nccc3c2nc(-c2ccc(F)cc2F)n3C)ccc1-c1cnc(C)s1 [Compound 78] |  |  |  |  |  | 275 |  | > 3000

The next lines start with the values.

IC50 [1, 3] [nM] | IC50 [1, 4] [nM] | IC50 [2, 3] [nM] | IC50 [2, 4] [nM] | IC50 [1, 5] [nM] | IC50 [1, 6] [nM] | IC50 [2, 5] [nM] | IC50 [2, 6] [nM] | SMILES
240 | 399 | > 3000 | > 3000 |  |  |  |  | COc1cc(Nc2cccc3c2nc(-c2ccc(F)cc2)n3C)ccc1-c1ccnn1C [Compound 9]
100 |  | > 3000 |  |  |  |  |  | Cc1ncc(-c2ccc(Nc3cccc4c3nc(-c3ccc(F)cc3)n4C(C)C)nc2)o1 [Compound 15]
 |  |  |  | 49 | 28 | > 3000 | > 3000 | Cc1ncc(-c2ccc(Nc3cccc4c3nc(-c3ccc(F)cc3)n4C(C)C)cc2)o1 [Compound 19]
 |  |  |  |  | 9 |  | > 3000 | COc1cccc(-c2nc3c(Nc4ccc(-c5cnc(C)o5)cc4)cccc3n2C(C)C)c1 [Compound 21]
 |  |  |  | 417 | 398 | > 3000 | > 3000 | Cc1ncc(-c2ccc(Nc3nccc4c3nc(-c3ccc(F)cc3)n4C)cc2)o1 [Compound 23]
 |  |  |  | 56 | 55 | > 3000 | > 3000 | COc1cc(Nc2cccc3c2nc(-c2ccc(F)cc2)n3C)ccc1-c1oc(C)nc1C [Compound 24]
 |  |  |  |  | 676 |  | > 3000 | COc1cc(Nc2nccc3c2nc(-c2ccc(F)cc2)n3C(C)C)ccc1-c1cnc(C)o1 [Compound 27]
 |  |  |  |  | 110 |  | > 3000 | Cc1ncc(-c2ccc(Nc3cccc4c3nc(-c3ccc(F)cc3)n4C(C)C)cc2F)o1 [Compound 28]
 |  |  |  | 29 | 28 | > 3000 | > 3000 | Cc1ncc(-c2ccc(Nc3cccc4c3nc(-c3ccc(F)cc3)n4C)cn2)o1 [Compound 29]
 |  |  |  | 235 | 282 | > 10000 | > 10000 | Cc1ncoc1-c1ccc(Nc2cccc3c2nc(-c2cccc(Cl)c2)n3C)nc1 [Compound 32]
 |  |  |  | 102 | 141 | > 10000 | > 10000 | COc1cc(-c2nc3c(Nc4ccc(-c5ocnc5C)cn4)cccc3n2C)ccc1Cl [Compound 33]
 |  |  |  | 16 | 110 | > 3000 | > 3000 | Cc1ncoc1-c1ccc(Nc2cccc3c2nc(-c2ccc(F)cc2)n3C(C)(C)C)cn1 [Compound 34]
 |  |  |  | 96 | 123 | > 3000 | > 3000 | Cc1ncc(-c2ccc(Nc3cccn4cc(-c5ccc(F)cc5)nc34)cc2)o1 [Compound 42]
 |  |  |  |  | 110 |  | > 3000 | Cc1ncc(-c2ccc(Nc3cccn4cc(-c5ccc(F)cc5C)nc34)cc2)o1 [Compound 46]
 |  |  |  | 486 | 447 | > 3000 | > 3000 | Cc1ccc(-c2cn3cccc(Nc4ccc(-c5cnc(C)o5)cc4)c3n2)c(F)c1 [Compound 47]
 |  |  |  |  | 1900 |  | > 10000 | Cc1ncc(-c2ccc(Nc3nccc4c3nc(-c3ccc(F)cc3F)n4C)cc2)o1 [Compound 53]
 |  |  |  |  | 1070 |  | > 10000 | Cc1ncc(-c2ccc(Nc3nccn4cc(-c5ccc(F)cc5C)nc34)cc2)o1 [Compound 57]
 |  |  |  |  | 65 |  | > 3000 | Cn1cc(-c2ccc(Nc3cccc4c3nc(-c3ccc(F)cc3)n4C)cc2)cn1 [Compound 67]
 |  |  |  |  | 76 |  | > 3000 | Cn1cc(-c2ccc(Nc3cccc4c3nc(-c3ccc(F)cc3)n4C)cn2)cn1 [Compound 70]
 |  |  |  |  | 1950 |  | > 3000 | Cn1nccc1-c1ccc(Nc2cccc3c2nc(-c2ccc(F)cc2)n3C)nc1 [Compound 71]
 |  |  |  |  | 955 |  | > 3000 | Cn1nccc1-c1ccc(Nc2cccc3c2nc(-c2ccc(F)cc2)n3C)cc1 [Compound 72]
 |  |  |  |  | 1150 |  | > 3000 | COc1cc(Nc2cccc3c2nc(-c2ccc(F)cc2)n3C)ccc1-c1ncnn1C [Compound 75]
 |  |  |  |  | 182 |  | > 3000 | Cc1ncc(-c2ccc(Nc3cccc4c3nc(-c3ccc(F)cc3)n4C)cn2)s1 [Compound 76]
 |  |  |  |  | 43 |  | > 3000 | COc1cc(Nc2cccc3c2nc(-c2ccc(F)cc2)n3C(C)C)ccc1-c1cnc(C)s1 [Compound 77]
 |  |  |  |  | 59 |  | > 3000 | Cc1nc(C)c(-c2ccc(Nc3cccc4c3nc(-c3ccc(F)cc3)n4C)cc2)o1 [Compound 83]

Reference: patent US8946426B2, “Substituted bicyclic heterocyclic compounds as gamma secretase modulators” (Janssen Pharmaceuticals, Inc., priority 2009, dated 2015)
